Experimental data from patent publication US20240308992A1 (Biopolar Youtang(Guangdong) Pharmaceutical Co., Ltd., priority 2021, published 2024).
Where a name gives a salt, the structure may show the parent alone.

Target: T1, Drak2 (Homo sapiens, UniProt O94768)
T1 sequence (O94768 1-372): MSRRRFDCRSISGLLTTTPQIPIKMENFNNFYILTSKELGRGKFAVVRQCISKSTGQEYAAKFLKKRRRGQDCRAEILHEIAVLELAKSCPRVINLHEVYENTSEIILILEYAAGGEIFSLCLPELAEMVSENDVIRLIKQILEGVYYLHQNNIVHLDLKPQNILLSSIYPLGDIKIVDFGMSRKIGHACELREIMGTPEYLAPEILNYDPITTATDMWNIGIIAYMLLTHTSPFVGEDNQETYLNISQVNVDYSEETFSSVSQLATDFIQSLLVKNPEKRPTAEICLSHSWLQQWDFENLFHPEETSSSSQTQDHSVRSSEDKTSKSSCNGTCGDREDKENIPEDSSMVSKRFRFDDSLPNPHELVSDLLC
Experiment: Drak2 activity test, ADP-Glo kinase assay (Promega)
Type: biochemical
Conditions: inhibition of Drak2 kinase activity, 2 h room temperature, activity range classes, read-out: IC50_Drak2

SMILES	IC50 [nM]
CCCCC(=O)Nc1csc(-c2cncc(-c3ccc(N)c(OC)c3)n2)c1 [Example 196, N-{5-[6-(4-amino-3-methoxyphenyl)pyrazin-2-yl]thiophen-3-yl}pentanamide]	< 10
CCCCC(=O)Nc1csc(-c2cncc(-c3cccc(O)c3)n2)c1 [Example 197, N-(5-(6-(3-hydroxyphenyl)pyrazin-2-yl)thiophen-3-yl) pentanamide]	11 to 100
CCCCC(=O)Nc1csc(-c2cncc(-c3cccc(C#N)c3)n2)c1 [Example 198, N-{5-[6-(3-cyanophenyl)pyrazin-2-yl]thiophen-3-yl} pentanamide]	101 to 1000
CCCCC(=O)Nc1csc(-c2cncc(-c3ccc(C(=O)N(C)C4CC5(C4)CN(C)C5)c(OC)c3)n2)c1 [Example 199, 2-Methoxy-N-methyl-N-(2-methyl-2-azaspiro[3.3]heptane-6-yl)-4-(6-(4-pentamidothiophen-2-yl)pyrazin-2-yl) benzamide]	11 to 100
COc1cc(-c2cncc(-c3cc(OCC[C@H](C)CN)cs3)n2)ccc1C(=O)N(C)C1CCN(C)CC1 [Example 200, 4-[6-(4-{[(3S)-4-amino-3-methylbutyl]oxy}thiophen-2-yl)pyrazin-2-yl]-2-methoxy-N-methyl-N-(1-methylhexahydropyridin-4-yl) benzamide]	11 to 100
COc1cc(-c2cncc(-c3cc(NC(=O)CC45CC(C4)C5)cs3)n2)ccc1C(=O)Nc1nnco1 [Example 204, 4-[6-(4-{[2-(bicyclo [1.1.1]penta-1-yl)acetyl]amino}thiophen-2-yl)pyrazin-2-yl]-2-methoxy-N-(1,3,4-oxadiazol-2-yl) benzamide]	101 to 1000
COc1cc(-c2cncc(-c3cc(NC(=O)CC4CCC4)cs3)n2)ccc1-c1ncc2c(n1)CCN(Cc1ccccc1)C2 [Example 208, N-(5-(6-(4-(6-benzyl-5,6,7,8-tetrahydropyrido [4,3-d]pyrimidin-2-yl)-3-methoxyphenyl)pyrazin-2-yl)thiophen-3-yl)-2-cyclobutyl Acetamide]	101 to 1000
O=C(CC1CCC1)Nc1csc(-c2cncc(-c3ccnc4[nH]ccc34)n2)c1 [Example 209, N-(5-(6-(1H-pyrrolo [2,3-b]pyridin-4-yl)pyrazin-2-yl)thiophen-3-yl)-2-cyclobutylacetamide]	11 to 100
CC(C)n1ccc2c(-c3cncc(-c4cc(NC(=O)CC5CCC5)cs4)n3)ccnc21 [Example 210, 2-Cyclobutyl-N-(5-{6-[1-(propyl-2-yl)pyrrolo [2,3-b]pyridin-4-yl]pyrazin-2-yl}thiophen-3-yl) acetamide]	101 to 1000
O=C(CC1CCC1)Nc1csc(-c2cncc(-c3ccnc4c3ccn4Cc3ccccc3)n2)c1 [Example 211, N-{5-[6-(1-benzylpyrrolo [2,3-b]pyridin-4-yl)pyrazin-2-yl]thiophen-3-yl}-2-cyclobutyl Acetamide]	101 to 1000
O=C(CC1CCC1)Nc1csc(-c2cncc(-c3ccc4cnn(C5CC5)c4c3)n2)c1 [Example 212, 2-Cyclobutyl-N-{5-[6-(1-cyclopropylindazol-6-yl)pyrazin-2-yl]thiophen-3-yl}acetamide]	101 to 1000
CC(C)n1ncc2ccc(-c3cncc(-c4cc(NC(=O)CC5CCC5)cs4)n3)cc21 [Example 213, 2-Cyclobutyl-N-(5-{6-[1-(propyl-2-yl)indazol-6-yl]pyrazin-2-yl}thiophen-3-yl) acetamide]	101 to 1000
CCCCC(=O)Nc1csc(-c2cncc(-c3ccc4c(c3)OCCN4C(=O)C3CCN(C)CC3)n2)c1 [Example 214, N-[5-(6-{4-[(1-methylhexahydropyridin-4-yl)carbonyl]-3,4-dihydro-2H-benzo [2,1-b] [1,4]oxazinan-7-yl}pyrazine-2-y)thiophene-3-yl] pentanamide]	11 to 100
O=C(CC1CCC1)Nc1csc(-c2cncc(-c3ccnc4c3ccn4CC(F)(F)F)n2)c1 [Example 215, 2-Cyclobutyl-N-(5-{6-[1-(2,2,2-trifluoroethyl)pyrrolo [2,3-b]pyridin-4-yl]pyrazin-2-yl}thiophen-3-yl) acetamide]	101 to 1000
CCCCC(=O)Nc1csc(-c2cncc(-c3cn(C)nc3C)n2)c1 [Example 216, N-{5-[6-(1,3-dimethylpyrazol-4-yl)pyrazin-2-yl]thiophen-3-yl}pentanamide]	< 10
CCCCC(=O)Nc1csc(-c2cncc(-c3cncs3)n2)c1 [Example 217, N-{5-[6-(1,3-thiazole-5-yl)pyrazin-2-yl]thiophen-3-yl} pentanamide]	11 to 100
CCCCC(=O)Nc1csc(-c2cncc(-c3ccc(CCO)s3)n2)c1 [Example 218, N-(5-{6-[5-(2-hydroxyethyl)thiophen-2-yl]pyrazin 2-yl}thiophen-3-yl) pentanamide]	11 to 100
CCCCC(=O)Nc1csc(-c2cncc(-c3cccs3)n2)c1 [Example 219, N-{5-[6-(thiophen-2-yl)pyrazin-2-yl]thiophen-3-yl}pentanamide]	11 to 100
CCCCC(=O)Nc1csc(-c2cncc(-c3ccco3)n2)c1 [Example 220, N-{5-[6-(furyl-2-yl)pyrazin-2-yl]thiophen-3-yl}pentanamide]	101 to 1000
CCCCC(=O)Nc1csc(-c2cncc(-c3ccc(OC)c(S(C)(=O)=O)c3)n2)c1 [Example 221]	101 to 1000
CCCCC(=O)Nc1csc(-c2cncc(-c3ccc(C(=O)OC)s3)n2)c1 [Example 222, methyl 5-(6-(4-pentamidothiophen-2-yl)pyrazin-2-yl) thiophen-2-carboxylate]	101 to 1000
COc1cc(-c2cncc(-c3nc(NC(=O)CC4CCC4)cs3)n2)ccc1C(=O)N(C)C1CCN(C)CC1 [Example 223, 4-(6-{4-[(2-cyclobutylacetyl)amino]-1,3-thiazole-2-yl}pyrazin-2-yl)-2-methoxy-N-methyl-N-(1-methylhexahydropyridin-4-yl) benzamide]	101 to 1000
Cn1ccc2c(-c3cncc(-c4cc(NC(=O)CC5CCC5)cs4)n3)ccnc21 [Example 224]	101 to 1000

Other lines, results leading:

IC50 [nM]	SMILES
1000 to 10000	COc1cc(-c2cncc(-c3cc(NC(=O)C(C)(C)C4CCC4)cs3)n2)ccc1C(=O)N(C)C1CC2(C1)CN(C)C2 [Example 201, 4-(6-{4-[(2-cyclobutyl-2-methylpropionyl)amino]thiophen-2-yl}pyrazin-2-yl)-2-methoxy-N-methyl-N-(2-methyl-2-azaspiro [3.3]hept-6-yl) benzamide]
11 to 100	COc1cc(-c2cncc(-c3cc(NC(=O)CC4CC(F)(F)C4)cs3)n2)ccc1C(=O)N(C)C1CC2(C1)CN(C)C2 (centres unmarked) [Example 202, 4-[6-(4-{[2-(3,3-difluorocyclobutyl)acetyl]amino}thiophen-2-yl)pyrazin-2-yl]-2-methoxy-N-methyl-N-(2-methyl-2-azaspiro [3.3]hept-6-yl) benzamide]
11 to 100	COc1cc(-c2cncc(-c3cc(NC(=O)C(C)(C)C4CC(F)(F)C4)cs3)n2)ccc1C(=O)N(C)C1CC2(C1)CN(C)C2 (centres unmarked) [Example 203, 4-[6-(4-{[2-(3,3-difluorocyclobutyl)-2-methylpropionyl]amino}thiophen-2-yl)pyrazin-2-yl]-2-methoxy-N-methyl-N-(2-methyl-2-azaspiro [3.3]hept-6-yl) benzamide]
11 to 100	COc1cc(-c2cncc(-c3cc(NC(=O)CC4CC(O)C4)cs3)n2)ccc1C(=O)N(C)C1CC2(C1)CN(C)C2 (centres unmarked) [Example 205, 4-(6-(4-(2-(3-hydroxycyclobutyl)acetylamino)thiophen-2-yl)pyrazin-2-yl)-2-methoxy-N-methyl-N-(2-methyl-2-azaspiro [3.3]heptane-6-yl) benzamide]
11 to 100	COc1cc(-c2cncc(-c3cc(NC(=O)CC4CC(OC)C4)cs3)n2)ccc1C(=O)N(C)C1CC2(C1)CN(C)C2 (centres unmarked) [Example 206, 2-Methoxy-4-(6-(4-(2-(3-methoxycyclobutyl)acetylamino)thiophen-2-yl)pyrazin-2-yl)-N-methyl-N-(2-methyl-2-azaspiro [3.3]heptane-6-yl) benzamide]
11 to 100	COc1cc(-c2cncc(-c3cc(NC(=O)CC4CC(OCc5ccccc5)C4)cs3)n2)ccc1C(=O)N(C)C1CC2(C1)CN(C)C2 (centres unmarked) [Example 207, 4-(6-(4-(2-(3-(benzyloxy)cyclobutyl)acetylamino)thiophen-2-yl)pyrazin-2-yl)-2-methoxy-N-methyl-N-(2-methyl-2-azaspiro [3.3]heptane-6-yl) benzamide]
101 to 1000	CCCCC(=O)Nc1csc(-c2cncc(-c3ccc(OC)c(OC)c3)n2)c1 [Example A1, N-(5-(6-(3,4-dimethoxyphenyl)pyrazin-2-yl)thiophen-3-yl)pentanamide]
1000 to 10000	COc1ccc(-c2cncc(-c3cc(N)cs3)n2)cc1OC [Example A2, 5-(6-(3,4-dimethoxyphenyl)pyrazin-2-yl)thiophen-3-amine hydrochloride]
101 to 1000	COc1ccc(-c2cncc(-c3cc(NC(C)=O)cs3)n2)cc1OC [Example A3, N-(5-(6-(3,4-dimethoxyphenyl)pyrazin-2-yl)thiophen-3-yl)acetamide]
101 to 1000	COc1ccc(-c2cncc(-c3cc(NC(=O)C(C)C)cs3)n2)cc1OC [Example A4, N-(5-(6-(3,4-dimethoxyphenyl)pyrazin-2-yl)thiophen-3-yl)isobutyramide]
101 to 1000	COc1ccc(-c2cncc(-c3cc(NC(=O)C(C)(C)C)cs3)n2)cc1OC [Example A5, N-(5-(6-(3,4-dimethoxyphenyl)pyrazin-2-yl)thiophen-3-yl)pivalamide]
101 to 1000	COc1ccc(-c2cncc(-c3cc(NC(=O)C4CC4)cs3)n2)cc1OC [Example A6, N-(5-(6-(3,4-dimethoxyphenyl)pyrazin-2-yl)thiophen-3-yl)cyclopropanecarboxamide]
